Test results reported in US20150148551A1, “GENISTEIN FOR REDUCING LEVELS OF STORAGE COMPOUNDS IN THE TREATMENT AND/OR PREVENTION OF LYSOSOMAL STORAGE DISEASES (LSDS)” (3G THERAPEUTICS, INC., priority 2012, published 2015).

Tests used:
[1] = test system: SUMF1; experiment: DNA microarray, SUMF1 expression in fibroblasts exposed to genistein; format: cell-based, human; conditions: for SUMF1 fold change Average: 48 h vs DMSO
Procedure: (§1) The experiments were conducted to characterise the transcriptomic profile of human fibroblast cells exposed to genistein, and in particular to determine the expression of genes encoding lysosomal enzymes involved in metabolism (i.e. synthesis and degradation) of organic substances. The absence or deficiency of these enzymes' activity is responsible for occurrence of various lysosomal storage diseases (LSD) (including MPS). The tested hypothesis assumed that genistein influences the expression of many genes, among which there are genes coding for enzymes required in metabolism of compounds, which are pathologically stored in LSD. The results provide important information regarding genistein action on the molecular level within the range of gene expression modulation by this substance. The experiment was conducted in biological quintuplicates. Human dermal fibroblasts (HDFa) were exposed in vitro for 1, 24 or 48 hours to: 30, 60 or 100 μM of genistein; 0.05% DMSO (K1); or were untreated (control cells) (K2), and total RNA was isolated and analysed.
(§2) Fibroblast cells were grown in Dulbecco (DMEM) medium supplemented with 10% fetal bovine serum (FBS) with the addition of 1% antibiotics and anti-fungal agents at 37° C. in humidified atmosphere of 5% CO2, until the required confluency was obtained.
(§3) To determine the effect of tested compound on the transcriptom of the fibroblast cells, the growth medium was replaced with fresh medium, either non-supplemented (0.05% DMSO), or containing genistein (30, 60 or 100 μM, in 0.05% DMSO). The exposure was done for 1, 24 or 48 hours.
(§4) Total RNA was isolated from fibroblasts using High Pure RNA Isolation Kit according to the protocol and then it was quantitatively evaluated using Quant-It™ RiboGreen® Assay Kit.
(§5) Biotinylated cRNA was prepared using Ambion Total PrepAmp Kit for Illumina arrays.
(§6) Standard hybridization and quantitative image analysis procedures—Illumina hybridization protocol and Illumina scanning protocol, were used.
(§7) Processing of the results was done during data definition, including: background correction (using background subtraction method), normalization (using quantile normalization algorithm with Illumina GenomeStudio software package: gene expression module version 1.9.0) and summarization (using method, which sums the values of signal intensities from a set of probes).

[2] = test system: FUCA1; experiment: DNA microarray, FUCA1 expression in fibroblasts exposed to genistein; format: cell-based, human; conditions: for FUCA1 fold change Average: 48 h vs DMSO
Procedure: as §1, §2, §3, §4, §5, §6, §7

[3] = test system: CTSK; experiment: DNA microarray, CTSK expression in fibroblasts exposed to genistein; format: cell-based, human; conditions: for CTSK fold change Average: 48 h vs DMSO
Procedure: as §1, §2, §3, §4, §5, §6, §7

[4] = test system: fibroblasts from patients with MPS type I, IIIA and IIIB; conditions: cited from earlier work
[5] = test system: Human dermal fibroblasts (HDFa); experiment: Transcriptomic profiling of fibroblasts with DNA microarrays, genes of synthesis and degradation; format: cell-based; conditions: cells cultured in the presence vs absence of genistein
Procedure: as §1, with “analysed. […]” for “analysed.”
Total RNA was isolated from fibroblasts using High Pure RNA Isolation Kit according to the protocol and then it was quantitatively evaluated using Quant-It™ RiboGreen® Assay Kit. […]
Standard hybridization and quantitative image analysis procedures—Illumina hybridization protocol and Illumina scanning protocol, were used. […]

[6] = test system: ASAH1; experiment: DNA microarray, ASAH1 expression in fibroblasts exposed to genistein; format: cell-based, human; conditions: for ASAH1 fold change Average: 48 h vs DMSO
Procedure: as §1, §2, §3, §4, §5, §6, §7

[7] = test system: MPS II and III; conditions: animal tests and pilot clinical trials; cited from earlier work
[8] = test system: ST3GAL4; experiment: DNA microarray, ST3GAL4 expression in fibroblasts exposed to genistein; format: cell-based, human
Procedure: as §1, §2, §3, §4, §5, §6, §7

[9] = test system: EXT1; experiment: DNA microarray, EXT1 expression in fibroblasts exposed to genistein; format: cell-based, human
Procedure: as §1, §2, §3, §4, §5, §6, §7

O=c1c(-c2ccc(O)cc2)coc2cc(O)cc(O)c12 [genistein, 4′,5,7-trihydroxy-3-phenylchromen-4-one]
SUMF1 fold change Average 1h30/1hK1 ([1]; 30 μM, 1 h vs 0.05% DMSO): 1.1314 fold change
SUMF1 fold change Average ([1]; 30 μM): 1.2364 fold change
SUMF1 fold change Average 1h60/1hK1 ([1]; 60 μM, 1 h vs 0.05% DMSO): 1.158 fold change
SUMF1 fold change Average ([1]; 60 μM): 1.849 fold change
SUMF1 fold change Average 1h100/1hK1 ([1]; 100 μM, 1 h vs 0.05% DMSO): 1.095 fold change
SUMF1 fold change Average ([1]; 100 μM): 1.705 fold change
FUCA1 fold change Average 1h30/1hK1 ([2]; 30 μM, 1 h vs 0.05% DMSO): 0.9984 fold change
FUCA1 fold change Average ([2]; 30 μM): 1.3114 fold change
FUCA1 fold change Average 1h60/1hK1 ([2]; 60 μM, 1 h vs 0.05% DMSO): 1.022 fold change
FUCA1 fold change Average ([2]; 60 μM): 1.558 fold change
FUCA1 fold change Average 1h100/1hK1 ([2]; 100 μM, 1 h vs 0.05% DMSO): 0.9945 fold change
FUCA1 fold change Average ([2]; 100 μM): 1.634 fold change
CTSK fold change Average 1h30/1hK1 ([3]; 30 μM, 1 h vs 0.05% DMSO): 0.9778 fold change
CTSK fold change Average ([3]; 30 μM): 1.2621 fold change
CTSK fold change Average 1h60/1hK1 ([3]; 60 μM, 1 h vs 0.05% DMSO): 1.108 fold change
CTSK fold change Average ([3]; 60 μM): 1.387 fold change
CTSK fold change Average 1h100/1hK1 ([3]; 100 μM, 1 h vs 0.05% DMSO): 0.9868 fold change
CTSK fold change Average ([3]; 100 μM): 1.541 fold change
GAG synthesis [4]: reduces levels of GAG synthesis
storage depositions in cells [4]: causes disappearance of the storage depositions in cells
expression of genes of degradation [5]: increased
expression of genes of synthesis [5]: reduced
ASAH1 fold change Average 1h30/1hK1 ([6]; 30 μM, 1 h vs 0.05% DMSO): 1.1419 fold change
ASAH1 fold change Average ([6]; 30 μM): 1.0802 fold change
ASAH1 fold change Average 1h60/1hK1 ([6]; 60 μM, 1 h vs 0.05% DMSO): 1.029 fold change
ASAH1 fold change Average ([6]; 60 μM): 1.412 fold change
ASAH1 fold change Average 1h100/1hK1 ([6]; 100 μM, 1 h vs 0.05% DMSO): 1.252 fold change
ASAH1 fold change Average ([6]; 100 μM): 1.52 fold change
effectiveness in the treatment of MPS II and III [7]: promising effectiveness
ST3GAL4 fold change Average 1h30/1hK1 ([8]; 30 μM, 1 h vs 0.05% DMSO): 0.9885 fold change
ST3GAL4 fold change Average 24h30/24hK1 ([8]; 30 μM, 24 h vs 0.05% DMSO): 0.782 fold change
ST3GAL4 fold change Average 48h30/48hK1 ([8]; 30 μM, 48 h vs 0.05% DMSO): 1.065 fold change
ST3GAL4 fold change Average 1h60/1hK1 ([8]; 60 μM, 1 h vs 0.05% DMSO): 0.9205 fold change
ST3GAL4 fold change Average 24h60/24hK1 ([8]; 60 μM, 24 h vs 0.05% DMSO): 0.9205 fold change
ST3GAL4 fold change Average 48h61/48hK1 ([8]; 60 μM, 48 h vs 0.05% DMSO): 0.9931 fold change
ST3GAL4 fold change Average 1h100/1hK1 ([8]; 100 μM, 1 h vs 0.05% DMSO): 0.8637 fold change
ST3GAL4 fold change Average 24h100/24hK1 ([8]; 100 μM, 24 h vs 0.05% DMSO): 0.6646 fold change
ST3GAL4 fold change Average 48h100/48hK1 ([8]; 100 μM, 48 h vs 0.05% DMSO): 0.8911 fold change
EXT1 fold change Average 1h30/1hK1 ([9]; 30 μM, 1 h vs 0.05% DMSO): 0.9138 fold change
EXT1 fold change Average 24h30/24hK1 ([9]; 30 μM, 24 h vs 0.05% DMSO): 0.8048 fold change
EXT1 fold change Average 48h30/48hK1 ([9]; 30 μM, 48 h vs 0.05% DMSO): 0.9291 fold change
EXT1 fold change Average 1h60/1hK1 ([9]; 60 μM, 1 h vs 0.05% DMSO): 0.9881 fold change
EXT1 fold change Average 24h60/24hK1 ([9]; 60 μM, 24 h vs 0.05% DMSO): 0.7005 fold change
